Here are results for 20 compounds from ChEMBL document CHEMBL1149118, “Validation of molecular docking calculations involving FGF-1 and FGF-2” (J Med Chem, 2004).

The target of experiment [1] is T1, Fibroblast growth factor 2 (Homo sapiens, UniProt P09038). In words: Binding affinity for Fibroblast growth factor 2.
The target of experiment [2] is T2, Fibroblast growth factor 1 (Homo sapiens, UniProt P05230). In words: Dissociation constant for Fibroblast growth factor 1.
The target of experiment [3] is T2, Fibroblast growth factor 1. In words: Binding affinity for Fibroblast growth factor 1.
Experiment [4] has as its target T1, Fibroblast growth factor 2. In words: Dissociation constant for Fibroblast growth factor 2.
Experiment [5] has as its target T1, Fibroblast growth factor 2. In words: Dissociation constant for Fibroblast growth factor 2 (None observed).
Experiment [6] concerns the target T1, Fibroblast growth factor 2. In words: Dissociation constant for Fibroblast growth factor 2 (None Observed).

The Kd is the concentration at which binding is half-saturated. A lower Kd goes with tighter binding.

T2 sequence (P05230 whole entry): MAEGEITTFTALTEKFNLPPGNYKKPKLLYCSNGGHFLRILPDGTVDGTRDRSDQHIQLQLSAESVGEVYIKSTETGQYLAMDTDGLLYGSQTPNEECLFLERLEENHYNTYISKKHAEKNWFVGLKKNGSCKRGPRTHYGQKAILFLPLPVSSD
T1 sequence (P09038 143-288 limits assumed): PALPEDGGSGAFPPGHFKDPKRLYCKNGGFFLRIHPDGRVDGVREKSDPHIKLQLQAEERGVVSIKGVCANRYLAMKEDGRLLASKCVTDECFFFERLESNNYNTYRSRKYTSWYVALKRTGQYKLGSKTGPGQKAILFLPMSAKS

With `CO[C@@H]1O[C@@H](COS(=O)(=O)O)[C@@H](O[C@@H]2O[C@@H](COS(=O)(=O)O)[C@H](OS(=O)(=O)O)[C@H](OS(=O)(=O)O)[C@@H]2OS(=O)(=O)O)[C@H](OS(=O)(=O)O)[C@@H]1OS(=O)(=O)O`, the values for the Delta G in experiment [1] and in experiment [3] were -6.53 kcal/mol and -8.1 kcal/mol, respectively. Besides, the Kd was found to be 1.15 µM in experiment [2] and 16.2 µM in experiment [4].

On to `O=S(=O)(O)OC[C@@H]1O[C@H](O[C@H]2[C@H](OS(=O)(=O)O)[C@H](OS(=O)(=O)O)C(OS(=O)(=O)O)O[C@H]2COS(=O)(=O)O)[C@@H](OS(=O)(=O)O)[C@H](OS(=O)(=O)O)[C@H]1OS(=O)(=O)O` (some centres not stated), for which the Delta G in experiment [1] is -7.09 kcal/mol; in experiment [3], -8.54 kcal/mol. The Kd in experiment [2] came to 0.54 µM; in experiment [4], 6.3 µM.

For the compound `O=S(=O)(O)OC[C@@H]1O[C@H](OS(=O)(=O)O)[C@H](OC2O[C@@H](COS(=O)(=O)O)[C@@H](S(=O)(=O)O)[C@H](O[C@H]3O[C@@H](COS(=O)(=O)O)[C@@H](OS(=O)(=O)O)[C@H](OS(=O)(=O)O)[C@H]3OS(=O)(=O)O)[C@H]2OS(=O)(=O)O)[C@@H](OS(=O)(=O)O)[C@@H]1OS(=O)(=O)O` (some centres not stated), the Delta G in experiment [1] was -8.08 kcal/mol; in experiment [3] it was -11.1 kcal/mol. In addition, the Kd turned out to be 0.0078 µM in experiment [2] and 1.18 µM in experiment [4].

For the compound `C=CCOC1C(C)OC(OC)C(OS(=O)(=O)O)C1OS(=O)(=O)O` (configuration not stated), the Kd entry was “None observed” in experiment [5] and 1340 µM in experiment [2]. The Delta G in experiment [3] is -3.92 kcal/mol.

For `O=S(=O)(O)OC[C@H]1OCC[C@@H](OCc2ccccc2)C1OS(=O)(=O)O` (some centres not stated), the results for the Delta G in experiment [1] and in experiment [3] were -3.13 kcal/mol and -3.36 kcal/mol, respectively. Besides, the Kd in experiment [2] is 3410 µM; in experiment [4], 5100 µM.

For `O=C(O)c1cc(/N=N/c2ccc(S(=O)(=O)Nc3ccccn3)cc2)ccc1O` [SULFASALAZINE], the values for the Kd result in experiment [6] and in experiment [2] were “None Observed” and 609 µM, respectively. The same compound displayed a Delta G in experiment [3] of -4.38 kcal/mol.

`O=C(CN(Cc1ccccc1)C(=O)C1OC(OS(=O)(=O)O)C(OS(=O)(=O)O)C(OS(=O)(=O)O)C1OS(=O)(=O)O)NC1CCCCC1` (configuration not stated): the Delta G in experiment [1] is -4.67 kcal/mol; in experiment [3], -5.35 kcal/mol. Also, the Kd in experiment [2] turned out to be 120 µM; in experiment [4], 375 µM.

Take `CO[C@H]1O[C@@H](COCC(=O)N(CCOS(=O)(=O)O)CC(=O)NC2CCCCC2)[C@@H](OS(=O)(=O)O)[C@H](OS(=O)(=O)O)[C@H]1OS(=O)(=O)O`: the Delta G was -4.44 kcal/mol in experiment [1] and -4.8 kcal/mol in experiment [3]. The Kd in experiment [2] was 300 µM; in experiment [4] it was 550 µM.

As for `O=S(=O)(O)OC[C@@H]1O[C@@H](O[C@H]2[C@H](OS(=O)(=O)O)[C@H](OS(=O)(=O)O)C(OS(=O)(=O)O)O[C@H]2COS(=O)(=O)O)[C@@H](OS(=O)(=O)O)[C@H](OS(=O)(=O)O)[C@H]1OS(=O)(=O)O` (some centres not stated), the Delta G in experiment [1] was -6.65 kcal/mol; in experiment [3], -8.07 kcal/mol. The Kd stood at 1.2 µM in experiment [2] and 13.3 µM in experiment [4].

Consider `CO[C@@H]1O[C@@H](COS(=O)(=O)O)[C@@H](OS(=O)(=O)O)[C@H](OC(=O)c2ccccc2)[C@@H]1OC(=O)c1ccccc1`, for which the Kd entry was “None observed” in experiment [5] and 921 µM in experiment [2]. Also, the Delta G in experiment [3] was -4.14 kcal/mol.

Regarding `O=S(=O)(O)C[C@@H]1[C@H](OS(=O)(=O)O)O[C@H](OS(=O)(=O)O)[C@H](O[C@H]2O[C@@H](COS(=O)(=O)O)[C@@H](OS(=O)(=O)O)[C@H](OS(=O)(=O)O)[C@H]2OS(=O)(=O)O)[C@H]1OS(=O)(=O)O`, the Delta G is -6.24 kcal/mol in experiment [1] and -9.39 kcal/mol in experiment [3]. In addition, the Kd amounted to 0.13 µM in experiment [2] and 26.7 µM in experiment [4].

Turning to `O=S(=O)(O)OC[C@H]1OCC[C@@H](OCCCOc2ccccc2)C1OS(=O)(=O)O` (some centres not stated), the Delta G is -2.9 kcal/mol in experiment [1] and -3.39 kcal/mol in experiment [3]. In addition, the Kd in experiment [2] came to 3250 µM; in experiment [4], 7500 µM.

`COC1C(OCc2ccccc2)C2COC(O2)C1OS(=O)(=O)O` (configuration not stated): the figures for the Delta G in experiment [1] and in experiment [3] were -2.86 kcal/mol and -4.79 kcal/mol, respectively. In addition, the Kd in experiment [2] is 307 µM; in experiment [4] it was 8020 µM.

As to `CO[C@@H]1CCO[C@H](COS(=O)(=O)O)C1OS(=O)(=O)O` (some centres not stated), the results for the Delta G in experiment [1] and in experiment [3] were -2.39 kcal/mol and -3.04 kcal/mol, respectively. In addition, the Kd in experiment [2] turned out to be 5940 µM; in experiment [4], 17400 µM.

Take `O=S(=O)(O)c1ccc2c(S(=O)(=O)O)cc(S(=O)(=O)O)cc2c1` [NAPHTHALENE TRISULFONATE]: the Delta G was -4.98 kcal/mol in experiment [1] and -4.53 kcal/mol in experiment [3]. For the same compound, the Kd turned out to be 474 µM in experiment [2] and 223 µM in experiment [4].

In the case of `[N-]=[N+]=NCC1OC(OS(=O)(=O)O)C(OS(=O)(=O)O)C(OS(=O)(=O)O)C1OS(=O)(=O)O` (configuration not stated), the Delta G in experiment [1] is -4.89 kcal/mol; in experiment [3], -4.73 kcal/mol. Further, the Kd came to 340 µM in experiment [2] and 258 µM in experiment [4].

Regarding `CO[C@H]1O[C@H](COS(=O)(=O)O)[C@@H](OS(=O)(=O)O)[C@H](OS(=O)(=O)O)[C@@H]1OS(=O)(=O)O`, the Delta G in experiment [1] is -4.72 kcal/mol; in experiment [3], -5.31 kcal/mol. The Kd in experiment [2] stood at 127 µM; in experiment [4] it was 343 µM.

For the compound `O=S(=O)(O)OC[C@@H]1O[C@H](OS(=O)(=O)O)[C@H](OS(=O)(=O)O)[C@@H](OS(=O)(=O)O)[C@@H]1OS(=O)(=O)O`, the Delta G in experiment [1] was -5.19 kcal/mol; in experiment [3], -6.04 kcal/mol. Moreover, the Kd in experiment [2] was 37.5 µM; in experiment [4], 155 µM.

`COC1OC(C)C(OCc2ccccc2)C(OS(=O)(=O)O)C1OS(=O)(=O)O` (configuration not stated): the results for the Delta G in experiment [1] and in experiment [3] were -4.91 kcal/mol and -4.73 kcal/mol, respectively. In addition, the Kd worked out at 338 µM in experiment [2] and 249 µM in experiment [4].

For the compound `O=S(=O)(O)C[C@@H]1[C@@H](O[C@]2(COS(=O)(=O)O)O[C@H](COS(=O)(=O)O)[C@@H](OS(=O)(=O)O)[C@@H]2OS(=O)(=O)O)O[C@@H](CS(=O)(=O)O)[C@@H](OS(=O)(=O)O)[C@H]1OS(=O)(=O)O`, the Delta G in experiment [1] is -7.17 kcal/mol; in experiment [3], -8.36 kcal/mol. The equilibrium dissociation constant (Kd) is 0.74 µM in experiment [2] and 5.5 µM in experiment [4].
